Laboratory results reported in patent US12371454B2, “Cyclic peptide compound having Kras inhibitory action” (priority 2019, dated 2025).
Positions of bridges follow the written chain, without caps; N, C: chain ends. Non-standard residues stand in square brackets, D forms with d. Residues, ends and D or L forms follow the SMILES beside them. *: point of attachment. hPhe(3-Cl-4-CF3) = N[C@@H](CCc1ccc(C(F)(F)F)c(Cl)c1)C(=O)O; Piperazinyl(4-(3-oxetanyl)) = C1OCC1N1CCN(*)CC1; NMePhe(4-Me) = CN[C@@H](Cc1ccc(C)cc1)C(=O)O; NMeGly(cPent) = CN[C@H](C(=O)O)C1CCCC1; NMeGly(cBu) = CN[C@H](C(=O)O)C1CCC1; NMeCha = CN[C@@H](CC1CCCCC1)C(=O)O; NMeChg = CN[C@H](C(=O)O)C1CCCCC1; NMeI = CC[C@H](C)[C@H](NC)C(=O)O; Piperidide(4-Me) = CC1CCN(*)CC1; NMeD = CN[C@@H](CC(=O)O)C(=O)O; NMeL = CN[C@@H](CC(C)C)C(=O)O; Oxazolidin(3-yl) = C1CN(*)CO1; NMeV = CN[C@H](C(=O)O)C(C)C; d(β3hA) = C[C@@H](N)CC(=O)O; dIva = CC[C@@](C)(N)C(=O)O; Morpholide = C1CN(*)CCO1; NMeA = CN[C@@H](C)C(=O)O; Piperidide = C1CCN(*)CC1; Ac5c = NC1(C(=O)O)CCCC1; Aze = O=C(O)[C@@H]1CCN1; X14 = CC1(C)CCN(*)C1; Sar = CNCC(=O)O

Experiments:
[1] = system: Human pancreatic cancer cell line AsPC-1; assay: Measurement of AsPC-1 cell growth inhibition (AsPC-1 CGI); format: cell-based; details: 96 h
How it was run: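 AsPC-1 cells in 15% FBS RPMI-1640 were exposed to test compound for 96 hours at 37° C, with CellTiter-Glo as endpoint.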

[2] = biological target: T1, Kras and SOS1 (biotin-tagged human Kras loaded with GDP, His-tagged human SOS1) (Homo sapiens, UniProt P01116, G12D); assay: Protein-protein interaction inhibition between Kras and SOS1 (KrasGl2D-SOS PPI) using AlphaScreen; format: binding; details: AlphaScreen; biotin-tagged human Kras loaded with GDP, His-tagged human SOS1; read-out: KRAS G12D-SOS PPI IC50
T1 construct: made in house; host or cells: E. coli (stated for Kras only)
How it was run: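 Energy transfer from nickel-chelate donor beads bound to His-SOS1 to streptavidin acceptor beads bound to biotin-Kras, expressed in E. coli and loaded with GDP after purification, was monitored. Donors were excited at 680 nm; singlet oxygen reaching acceptors gave emission read at 520-620 nm.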

T1 sequence (P01116 1-188 isoform P01116-2 G12D): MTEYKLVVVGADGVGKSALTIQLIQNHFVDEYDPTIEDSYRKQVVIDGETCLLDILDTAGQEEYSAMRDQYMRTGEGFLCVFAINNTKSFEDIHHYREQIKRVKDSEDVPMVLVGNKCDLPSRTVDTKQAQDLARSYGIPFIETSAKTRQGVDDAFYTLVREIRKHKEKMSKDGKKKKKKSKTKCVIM

Structure (SMILES) | IC50 [1] [nM] | IC50 [2] [nM]
CC[C@H](C)[C@@H]1NC(=O)[C@H](CC(C)C)N(C)C(=O)C[C@@H](C(=O)N2CCCCC2)N(C)C(=O)[C@H](C2CCC2)N(C)C(=O)C2(CCCC2)NC(=O)[C@@H]2CCCN2C(=O)[C@H](CCc2ccc(C(F)(F)F)c(Cl)c2)NC(=O)CN(C)C(=O)[C@H](CC2CCCCC2)N(C)C(=O)CN(C)C(=O)CN(C)C1=O [Compound 1128] ([NMeL]I[Sar][Sar][NMeCha][Sar][hPhe(3-Cl-4-CF3)]P[Ac5c][NMeGly(cBu)][NMeD]-Piperidide; lactam N-11) | 100 to 500 | 2.1
CC[C@H](C)[C@@H]1NC(=O)[C@H](CC(C)C)N(C)C(=O)C[C@@H](C(=O)N2CCCCC2)N(C)C(=O)[C@H](C(C)C)N(C)C(=O)[C@@](C)(CC)NC(=O)[C@@H]2CCCN2C(=O)[C@H](CCc2ccc(C(F)(F)F)c(Cl)c2)NC(=O)CN(C)C(=O)[C@H](CC2CCCCC2)N(C)C(=O)CN(C)C(=O)CN(C)C1=O [Compound 1130] ([NMeL]I[Sar][Sar][NMeCha][Sar][hPhe(3-Cl-4-CF3)]P[dIva][NMeV][NMeD]-Piperidide; lactam N-11) | 100 to 500 | 4.4
CC[C@H](C)[C@@H]1NC(=O)[C@H](CC(C)C)N(C)C(=O)C[C@@H](C(=O)N2CCC(C)(C)C2)N(C)C(=O)[C@H](C2CCCCC2)N(C)C(=O)C2(CCCC2)NC(=O)[C@@H]2CCCN2C(=O)[C@H](CCc2ccc(C(F)(F)F)c(Cl)c2)NC(=O)CN(C)C(=O)[C@H](CC2CCCCC2)N(C)C(=O)CN(C)C(=O)CN(C)C1=O [Compound 1150] ([NMeL]I[Sar][Sar][NMeCha][Sar][hPhe(3-Cl-4-CF3)]P[Ac5c][NMeChg][NMeD]-X14; lactam N-11) | 50 to 100 | 0.52
CC[C@H](C)[C@@H]1NC(=O)[C@H](CC(C)C)N(C)C(=O)C[C@@H](C)NC(=O)[C@H](C2CCCC2)N(C)C(=O)C2(CCCC2)NC(=O)[C@H](C)N(C)C(=O)[C@H](CCc2ccc(C(F)(F)F)c(Cl)c2)NC(=O)CN(C)C(=O)[C@H](Cc2ccc(C)cc2)N(C)C(=O)[C@@H]2CCN2C(=O)[C@H](C)N(C)C1=O [Compound 1153] (cyclo([Ac5c][NMeGly(cPent)][d(β3hA)][NMeL]I[NMeA][Aze][NMePhe(4-Me)][Sar][hPhe(3-Cl-4-CF3)][NMeA])) | 100 to 500 | 2.5
CC[C@H](C)[C@@H]1NC(=O)[C@H](CC(C)C)N(C)C(=O)C[C@@H](C(=O)N2CCC(C)CC2)NC(=O)[C@H]([C@@H](C)CC)N(C)C(=O)C2(CCCC2)NC(=O)[C@@H]2CCCN2C(=O)[C@H](CCc2ccc(C(F)(F)F)c(Cl)c2)NC(=O)CN(C)C(=O)[C@H](CC2CCCCC2)N(C)C(=O)CN(C)C(=O)CN(C)C1=O [Compound 1172] ([NMeL]I[Sar][Sar][NMeCha][Sar][hPhe(3-Cl-4-CF3)]P[Ac5c][NMeI]D-{Piperidide(4-Me)}; lactam N-11) | 100 to 500 | 6.8
CC[C@H](C)[C@@H]1NC(=O)[C@H](CC(C)C)N(C)C(=O)C[C@@H](C(=O)N2CCOCC2)N(C)C(=O)[C@H](C(C)C)N(C)C(=O)C2(CCCC2)NC(=O)[C@@H]2CCCN2C(=O)[C@H](CCc2ccc(C(F)(F)F)c(Cl)c2)NC(=O)CN(C)C(=O)[C@H](CC2CCCCC2)N(C)C(=O)[C@@H]2CCN2C(=O)[C@H](C)N(C)C1=O [Compound 1178] ([NMeL]I[NMeA][Aze][NMeCha][Sar][hPhe(3-Cl-4-CF3)]P[Ac5c][NMeV][NMeD]-Morpholide; lactam N-11) | 50 to 100 | 1
CC[C@H](C)[C@@H]1NC(=O)[C@H](CC(C)C)N(C)C(=O)C[C@@H](C(=O)N2CCOC2)N(C)C(=O)[C@H](C2CCCCC2)N(C)C(=O)C2(CCCC2)NC(=O)[C@@H]2CCCN2C(=O)[C@H](CCc2ccc(C(F)(F)F)c(Cl)c2)NC(=O)CN(C)C(=O)[C@H](CC2CCCCC2)N(C)C(=O)CN(C)C(=O)CN(C)C1=O [Compound 1180] ([NMeL]I[Sar][Sar][NMeCha][Sar][hPhe(3-Cl-4-CF3)]P[Ac5c][NMeChg][NMeD]-{Oxazolidin(3-yl)}; lactam N-11) | 50 to 100 | 0.5
CC[C@H](C)[C@@H]1NC(=O)[C@H](CC(C)C)N(C)C(=O)C[C@@H](C(=O)N2CCN(C3COC3)CC2)N(C)C(=O)[C@H](C(C)C)N(C)C(=O)C2(CCCC2)NC(=O)[C@@H]2CCCN2C(=O)[C@H](CCc2ccc(C(F)(F)F)c(Cl)c2)NC(=O)CN(C)C(=O)[C@H](CC2CCCCC2)N(C)C(=O)[C@@H]2CCN2C(=O)[C@H](C)N(C)C1=O [Compound 1181] ([NMeL]I[NMeA][Aze][NMeCha][Sar][hPhe(3-Cl-4-CF3)]P[Ac5c][NMeV][NMeD]-{Piperazinyl(4-(3-oxetanyl))}; lactam N-11) | 100 to 500 | 6
